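How tested: cells in 96-well plates exposed to compound for 48 hours at five concentrations. At the GI50, growth is halved.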 Active and inactive are the calls of the source. Rule as the data show it: active = GI50 up to about 1.1 µM and inactive = higher.

Test systems include ACHN; CCRF-CEM; EKVX; HCC 2998; HL-60; HOP-92; Hs-578T; K562; LOX IMVI; MCF7; MOLT-4; NCI-H226; NCI-H23; OVCAR-3; RPMI-8226; RXF 393; SF-295; SNB-19; SNB-75; UO-31.
Common to all, as to assay: DTP human tumour cell line panel, 48 h

As for `O=[N+]([O-])C(=C(Cl)Cl)C(Cl)=C(Cl)Cl`, the GI50 was 0.635 µM (active) in the experiment with ACHN; < 0.01 µM (active) in the experiment with CCRF-CEM; 3.65 µM (inactive) in the experiment on EKVX; 1.3 µM (inactive) in the experiment on HCC 2998; < 0.0194 µM (active) in the experiment on HL-60; 0.279 µM (active) with HOP-92. Further, the GI50 with Hs-578T is 0.485 µM (active); in the experiment on K562, 0.0118 µM (active); in the experiment on LOX IMVI it was < 0.0117 µM (active); with MCF7, 0.114 µM (active); in the experiment with MOLT-4, 0.0166 µM (active); with NCI-H226, 0.834 µM (active). The GI50 in the experiment on NCI-H23 is 0.265 µM (active); in the experiment on OVCAR-3 it was 0.706 µM (active); in the experiment on RPMI-8226 it was < 0.0176 µM (active); in the experiment on RXF 393, 0.0391 µM (active); in the experiment on SF-295, 3.06 µM (inactive); in the experiment on SNB-19, 4.6 µM (inactive). Besides, the values for the GI50 in the experiment with SNB-75 and in the experiment on UO-31 were 1.39 µM (inactive) and 0.836 µM (active), respectively.

Turning to `COc1cc([C@H]2Oc3c(OC)cc(CCCO)cc3[C@@H]2CO)ccc1O` [DIHYDRODEHYDRODICONIFERY ALCOHOL], the GI50 with ACHN is > 100 µM (inactive); in the experiment on CCRF-CEM, > 100 µM (inactive); with EKVX, > 100 µM (inactive); in the experiment with HCC 2998, > 100 µM (inactive); in the experiment on HL-60, > 100 µM (inactive); in the experiment with HOP-92, 89.5 µM (inactive). Further, the GI50 in the experiment with Hs-578T is 47.2 µM (inactive); in the experiment on K562, > 100 µM (inactive); in the experiment on LOX IMVI, > 100 µM (inactive); with MCF7, 37.2 µM (inactive); with MOLT-4, 51.6 µM (inactive); in the experiment with NCI-H226, > 100 µM (inactive). Further, the GI50 in the experiment with NCI-H23 was 54.5 µM (inactive); in the experiment on OVCAR-3, > 100 µM (inactive); in the experiment with RPMI-8226, 55.1 µM (inactive); with RXF 393, > 100 µM (inactive); with SF-295 it was > 100 µM (inactive); in the experiment on SNB-19, > 100 µM (inactive). The GI50 in the experiment on SNB-75 is 44.9 µM (inactive); in the experiment on UO-31, 57.8 µM (inactive).

In the case of `Cc1c2ccccc2c(/C=N/NC(=O)CSCC(=O)N/N=C/c2c3ccccc3c(C)c3ccccc23)c2ccccc12`, the GI50 in the experiment with ACHN is > 47.8 µM (inactive); with CCRF-CEM, 34.2 µM (inactive); in the experiment with EKVX, > 59 µM (inactive); in the experiment on HCC 2998 it was 18.3 µM (inactive); with HL-60, > 68.7 µM (inactive); in the experiment with HOP-92, 13.2 µM (inactive). The GI50 in the experiment with Hs-578T is 46 µM (inactive); with K562, 37.9 µM (inactive); in the experiment with LOX IMVI it was > 57.4 µM (inactive); with MCF7 it was 23 µM (inactive); with MOLT-4, 27.8 µM (inactive); in the experiment with NCI-H226, > 44.7 µM (inactive). Besides, the GI50 is 11.4 µM (inactive) in the experiment with NCI-H23; 47.5 µM (inactive) in the experiment on OVCAR-3; 17.2 µM (inactive) in the experiment with RPMI-8226; 16.3 µM (inactive) in the experiment with RXF 393; 16 µM (inactive) with SF-295; 47 µM (inactive) in the experiment on SNB-19. The GI50 in the experiment with SNB-75 is > 27.4 µM (inactive); with UO-31, > 84.1 µM (inactive).

Turning to `CCc1nc(N)nc(N)c1-c1ccc(Cl)cc1` [PYRIMETHAMINE], the GI50 in the experiment on ACHN is 5.11 µM (inactive); in the experiment on CCRF-CEM, 3.33 µM (inactive); in the experiment with EKVX it was 7.55 µM (inactive); with HCC 2998, 6.25 µM (inactive); with HL-60 it was 2.38 µM (inactive); in the experiment with HOP-92, 21.3 µM (inactive). The GI50 was > 58.2 µM (inactive) in the experiment on Hs-578T; 0.542 µM (active) in the experiment on K562; 6.19 µM (inactive) in the experiment with LOX IMVI; 11.1 µM (inactive) with MCF7; 4.84 µM (inactive) in the experiment on MOLT-4; 42.6 µM (inactive) in the experiment on NCI-H226. Moreover, the GI50 in the experiment on NCI-H23 is 5.79 µM (inactive); in the experiment with OVCAR-3 it was 32 µM (inactive); in the experiment on RPMI-8226, 34.6 µM (inactive); in the experiment with RXF 393, > 76.4 µM (inactive); in the experiment with SF-295, 4.44 µM (inactive); with SNB-19 it was 32.8 µM (inactive). Further, the GI50 was 44.9 µM (inactive) in the experiment on SNB-75 and 16.4 µM (inactive) in the experiment on UO-31.

For `O=[N+]([O-])c1cc(Cl)ccc1Sc1ccccc1`, the GI50 in the experiment on ACHN was > 100 µM (inactive); in the experiment with CCRF-CEM, 89.9 µM (inactive); in the experiment with EKVX, > 100 µM (inactive); with HCC 2998 it was 87.9 µM (inactive); in the experiment on HL-60, 61.7 µM (inactive); with HOP-92 it was 42.2 µM (inactive). Moreover, the GI50 in the experiment with Hs-578T is > 100 µM (inactive); in the experiment on K562, > 100 µM (inactive); in the experiment on LOX IMVI, > 100 µM (inactive); in the experiment on MCF7, > 100 µM (inactive); in the experiment with MOLT-4 it was 56.1 µM (inactive); with NCI-H226 it was 34.8 µM (inactive). For the same molecule, the GI50 in the experiment with NCI-H23 was > 100 µM (inactive); with OVCAR-3 it was > 100 µM (inactive); in the experiment with RPMI-8226 it was > 100 µM (inactive); in the experiment on RXF 393, 80.2 µM (inactive); with SF-295, > 100 µM (inactive); with SNB-19 it was > 100 µM (inactive). The GI50 in the experiment with SNB-75 is 20.8 µM (inactive); with UO-31, 23.6 µM (inactive).

With `CC(C)(C)OC(=O)N/N=C(/N)Cc1ccccc1`, the GI50 in the experiment with ACHN, in the experiment with CCRF-CEM, with EKVX, in the experiment with HCC 2998, with HL-60 and with HOP-92 was > 100 µM (inactive) throughout. Also, the GI50 with Hs-578T, with K562, in the experiment with LOX IMVI, in the experiment with MCF7, in the experiment with MOLT-4 and in the experiment with NCI-H226 was > 100 µM (inactive) in each case. Also, the GI50 in the experiment with NCI-H23, in the experiment with OVCAR-3, in the experiment on RPMI-8226, in the experiment on RXF 393, in the experiment with SF-295 and in the experiment on SNB-19 was > 100 µM (inactive) in each case. The GI50 in the experiment with SNB-75 and in the experiment with UO-31 was > 100 µM (inactive) throughout.

For the molecule `CC(C)c1ccc(O)c(=O)c(O)c1.CC(C)c1ccc(O)c(=O)cc1.CC(C)c1cccc(=O)c(O)c1.CC(C)c1ccccc(=O)c1O`, the GI50 is 0.47 µM (active) in the experiment on ACHN; 0.21 µM (active) in the experiment on CCRF-CEM; 6.15 µM (inactive) in the experiment with EKVX; 0.304 µM (active) in the experiment with HCC 2998; 0.281 µM (active) in the experiment on HL-60; 5.94 µM (inactive) in the experiment with HOP-92. In addition, the GI50 in the experiment with Hs-578T was 4.46 µM (inactive); in the experiment on K562, 0.571 µM (active); in the experiment on LOX IMVI, 0.76 µM (active); in the experiment with MCF7, 0.935 µM (active); in the experiment on MOLT-4, 0.343 µM (active); with NCI-H226, 1.76 µM (inactive). The GI50 with NCI-H23 was 0.851 µM (active); in the experiment on OVCAR-3, 0.279 µM (active); in the experiment on RPMI-8226 it was 0.964 µM (active); with RXF 393, 0.432 µM (active); with SF-295 it was 1.23 µM (inactive); with SNB-19, 3.4 µM (inactive). The GI50 in the experiment with SNB-75 was 2.02 µM (inactive); with UO-31, 0.841 µM (active).

For `CC1(C)N=C(N)N=C(N)N1CCCCc1ccccc1`, the GI50 was 1.48 µM (inactive) in the experiment with ACHN; 0.483 µM (active) in the experiment on CCRF-CEM; 2.21 µM (inactive) in the experiment with EKVX; 13.3 µM (inactive) in the experiment with HCC 2998; 0.431 µM (active) in the experiment on HL-60; > 62.2 µM (inactive) in the experiment on HOP-92. The GI50 in the experiment on Hs-578T was 3.21 µM (inactive); with K562, < 0.0177 µM (active); in the experiment on LOX IMVI, 0.149 µM (active); in the experiment with MCF7 it was 0.838 µM (active); in the experiment with MOLT-4 it was 0.104 µM (active); with NCI-H226 it was 6.47 µM (inactive). In addition, the concentration for 50% growth inhibition (GI50) is 0.31 µM (active) in the experiment on NCI-H23; 0.601 µM (active) in the experiment on OVCAR-3; 2.43 µM (inactive) with RPMI-8226; 0.422 µM (active) with RXF 393; 0.145 µM (active) in the experiment with SF-295; 0.733 µM (active) with SNB-19. The GI50 was 15.4 µM (inactive) with SNB-75 and 64.3 µM (inactive) in the experiment with UO-31.

Take `CC(C)CCC[C@@H](C)[C@H]1CC[C@H]2[C@@H]3CC[C@H]4C[C@@H](CCC=C(c5cc(Cl)c(O)c(C(=O)O)c5)c5cc(Cl)c(O)c(C(=O)O)c5)CC[C@]4(C)[C@H]3CC[C@]12C`: the GI50 with ACHN, with CCRF-CEM, in the experiment on EKVX, in the experiment with HCC 2998, in the experiment with HL-60 and in the experiment on HOP-92 was > 100 µM (inactive) in each case. Also, the GI50 with Hs-578T, in the experiment with K562, in the experiment with LOX IMVI, with MCF7, in the experiment with MOLT-4 and in the experiment on NCI-H226 was > 100 µM (inactive) throughout. The GI50 with NCI-H23, with OVCAR-3, in the experiment on RPMI-8226, in the experiment on RXF 393, with SF-295 and with SNB-19 was > 100 µM (inactive) in each case. The GI50 with SNB-75 and in the experiment on UO-31 was > 100 µM (inactive) throughout.

Take `N#Cc1nc(Sc2cnsn2)c(Sc2cnsn2)nc1C#N`: the GI50 in the experiment with ACHN was 7.1 µM (inactive); in the experiment on CCRF-CEM, 0.426 µM (active); in the experiment on EKVX, 10.4 µM (inactive); in the experiment with HCC 2998, 18.7 µM (inactive); in the experiment with HL-60, 1.95 µM (inactive); with HOP-92 it was 20 µM (inactive). For the same molecule, the GI50 is 19.1 µM (inactive) in the experiment with Hs-578T; 2.9 µM (inactive) in the experiment with K562; 17.9 µM (inactive) in the experiment on LOX IMVI; 21.9 µM (inactive) with MCF7; 2.65 µM (inactive) in the experiment on MOLT-4; 19.9 µM (inactive) with NCI-H226. The GI50 was 21.6 µM (inactive) with NCI-H23; 6.79 µM (inactive) in the experiment on OVCAR-3; 3.5 µM (inactive) with RPMI-8226; 5.94 µM (inactive) in the experiment on RXF 393; 16.6 µM (inactive) in the experiment with SF-295; 30 µM (inactive) with SNB-19. The figures for the GI50 in the experiment on SNB-75 and in the experiment with UO-31 were 22.9 µM (inactive) and 9.44 µM (inactive), respectively.

These data come from ChEMBL document CHEMBL1201862, “PubChem BioAssay data set” (2004).
